The test system of data set [1] is Salmonella. Briefly: MIC by micro dilution, clinical Salmonella isolates from Vietnam. Format: cell-based. To be noted: 117 Salmonella from diarrhoeal cases in Vietnam; read-out: median MIC. An excerpt:
(§1) Selected compounds, including Tebipenem, were profiled against a panel of […] clinical isolates of enteric pathogens comprised of Shigella (Vietnam and Kenya; n = 135), non-typhoidal Salmonella (Vietnam; n = 117), Campylobacter (Vietnam; n = 75), and various pathogenic E. coli species (Vietnam; n = 7) ([Butcher et al., 2014]). The antimicrobial susceptibility profile of these organisms is described in Supplementary file 1.
(§2) Compound screening and dose response assays have been described previously ([Van Voorhis et al., 2016]; [Wiegand et al., 2008]). Briefly, the selected bacteria were cultured on the Luria-Bertani agar overnight at 37 °C (Campylobacter isolates were grown in 2.5% Laked Horse Blood cation-adjusted Mueller Hinton medium (CAMHB, Sigma Aldrich) and incubated in microaerophilic conditions (10% CO2, 5% O2 and 85% N2) at 42 °C); colonies were added to sterile PBS to form 0.5 McFarland solutions. […] The activity of the chemical was recorded as being active (yes) or non-active (no) for each of the tested chemicals. A non-active result was recorded when there was no evidence of bacterial inhibition, and the culture area was indistinguishable from the negative control.
(§3) MICs were evaluated using the micro dilution assay in Müller Hinton broth using 1 mM chemical stock solutions, and a final concentration of 5 × 10^5 CFU/mL bacteria. […]

The subject of data set [2] is E. coli. Nature of the data set: MIC by micro dilution, clinical E. coli isolates from Vietnam. Format: cell-based. The conditions noted are these: Escherichia coli; seven E. coli from diarrhoeal cases in Vietnam; read-out: median MIC.
From the text: as §1, §2, §3

Data set [3] has as its system S. flexneri 2457T. Nature of the data set: microbe, parasite or virus in culture. Type of data set: cell-based, Shigella flexneri. Here is the method:
Bacterial inoculum without drug was used as positive control. The bacteria inoculum (1 × 10^5 CFU/mL) for the assay was prepared by diluting a log phase incubated at 37 °C for 3–4 hr. Mueller Hinton agar plates were prepared containing 4xMIC and 10xMIC and inoculated with different concentrations of bacteria (1 × 10^9, 1 × 10^8, and 1 × 10^7 CFU/mL). Plates were prepared in duplicate and incubated overnight at 37 °C. The frequency of spontaneous resistant mutants was calculated by using the formula: FoR = resistant CFUs/inoculum CFUs. The mean of the two plates was reported.

Data set [4] can be described thus: in vivo. To be noted: pig, po, 50 mg/kg. Here is the method: Blood was collected from the jugular veins while manually restraining the piglets. […] Blood samples were centrifuged at 2,200 x g for 10 min at 4 °C. Plasma was extracted and stored at –80 °C. Pharmacokinetic analysis was performed as above described.
Data set [5] in a line: Intestinal distribution by quantitative LC-MS in mice. The conditions noted are these: for peak drug concentration: mice, oral 50 mg/kg Tebipenem pivoxil. Type of data set: in vivo. Here is the method: (§4) One animal was euthanised at 0.25, 0.5, 1, and 4 hr respectively and 2.5–3 cm sections of the intestine (duodenum, jejunum, ileum, caecum, and colon) were collected and frozen at –80 °C. For quantitative LCMS analysis of intestine homogenate, samples were thawed at ambient temperature, mixed with water (1:1) and homogenised by turrax (10 sec). Subsequently, 20 µL of homogenate were mixed with 200 µl of ACN: MeOH (80:20) and filtered using 0.2 µm filter plate (Whatman). LCMS analysis was performed as described in previous section. For MALDI imaging, 50 mm of the central part of each intestinal section were cut and mounted in a sample disc on dry ice with a solution of 1% methylcellulose (Sigma Aldrich, UK). Next, tissue sections of 12 µm (sagital sections) were obtained using a cryostat (Leica CM3600; Leica Microsystems Inc, Wetzlar, Germany) at –20 °C and collected in conductive-coated slides for MALDI Imaging (Bruker Daltonic). After the ‘MALDI’ section was obtained a consecutive section for histology was taken. Prior to matrix coating, samples for MALDI were optical scanned in a PathScanner. The matrix deposition was conducted in a sprayer ImagePrep System (Bruker Daltonic) which uses vibrational vaporisation technology. As matrix solution α-CHCA (α-Cyano-4-hydroxycinnamic acid (Sigma Aldrich) dissolved in 70:30 methanol/water (v/v) containing 0.2% TFA at 7 mg/mL was used. MALDI MSI data were obtained using a Bruker UltrafleXtream MALDI TOF/TOF (Bruker Daltonic, Germany)).

The nature of data set [6]: Intestinal distribution by MALDI imaging in mice. Format: in vivo. The conditions noted are these: 60 min after oral pro-drug. On the procedure: as §4
Both compounds were analysed in positive mode using a LIFT method. For Tebipenem, parent compound was 384.32 and the detection mass window between m/z 0–400. 298.164 were the most intensive fragment. […] We used a laser shut at 85% power with a 50 μm step size, 100 times at raster spot in random wak mode. FlexImaging 4.1(bruker Daltoninc, Germany) were used for the data visualisation. […]
MALDI Imaging is not a quantitative technique, therefore, the colour scale of images is relative to the maximum intensity (100 corresponds with the maximal signa in each slide). […]

In data set [7] the test system is S. flexneri 2457T. Type of data set: in vivo. To be noted: mice, 39 mg/kg Tebipenem freebase subcutaneously, 24 hr after intraperitoneal infection.
Data set [8] relates to S. flexneri 2457T. Nature of the data set: Gnotobiotic piglet Shigella infection model, efficacy. Type of data set: in vivo. To be noted: 6-day experiment.
For data set [9] the following is noted: mice, Tebipenem PO 39 mg/kg, n = 3.
The nature of data set [10]: in vivo. To be noted: female, C57, mouse; for bioavailability: mice, n = 3.
Where [11] appears, read: female, C57, mouse, duodenum and jejunum, po, 50 mg/kg, read-out: concentration in tissue.

≈ marks a conversion by molar mass, not a printed value. Where two headings read alike, the source gives them in different places. Some results are limits rather than exact numbers.

For orientation: AUC(0-t) means the area under the concentration-time curve up to a stated or last time point. Low values mean low exposure, high ones high exposure. One may read the bioavailability as dose-corrected exposure relative to a reference, in per cent. Higher therefore signals good availability. As a reminder, the Tmax is the time from dosing to the highest level. Usually Cmax stands for the peak of the concentration-time curve.

Consider `C[C@@H](O)[C@H]1C(=O)N2C(C(=O)O)=C(SC3CN(C4=NCCS4)C3)[C@H](C)[C@H]12` [Tebipenem], for which the MIC in data set [1] is less than 0.1 µM; in data set [2], less than 0.1 µM; in data set [3] (Shigella flexneri, 2457T), 0.02 µM (≈ 0.00767 µg/mL). For the same compound, the “frequency of spontaneous resistance” value in data set [3] (S. flexneri 2457T, 4 x and 10 x MIC) was < 1.2 × 10^–9. Further, the area under the curve AUC(0-t) in data set [4] is 32000 ng·h/mL; in data set [10] (39 mg/kg) it was 80000 ng·h/mL; in data set [10] (po, 39 mg/kg) it was 7500 ± 1500 ng·h/mL; in [10] (sc, 39 mg/kg), 80400 ± 7700 ng·h/mL. For the same compound, in data set [4], the concentration at 6 hr turned out to be 1000 ng/mL. Further, in data set [5] (setting [11]), the concentration at 15 min was more than 300000 ng/g. The concentration at 240 min in [5] (setting [11]) was more than 400 ng/g. Besides, the peak drug concentration in [5] (caecum, after 60 min) is reported as 11 µg/g tissue; in data set [5] (colon, after 60 min) it was 6 µg/g tissue; in data set [5] (ileum, after 30 min) it was 15 µg/g tissue. For the same compound, the “MALDI detection in the intestinal lumen” value in [6] was “could be detected in the lumen and enterocytes throughout the gut”. In data set [7], the “reduction of organisms in the small intestine” value is 1.2 log. Moreover, the “weight gain vs vehicle-treated piglets” value in data set [8] is reported as “not statistically significant”. Moreover, the bioavailability was 4 ± 1% in data set [9]; approximately 5% in data set [10] (po, 39 mg/kg, Tebipenem PO 39 mg/kg); 44 ± 4% in data set [10] (sc, 39 mg/kg, Tebipenem SQ 39 mg/kg). In addition, the Tmax in data set [10] is not above 60 min; in data set [10] (sc, 39 mg/kg) it was 15 min. Besides, the Cmax in [10] (po, 39 mg/kg) amounted to 3700 ± 900 ng/mL; in data set [10] (sc, 39 mg/kg), 71000 ± 15300 ng/mL.

(Values after publication PMC8959600 (eLife, 2022).)
